According to patent publication US9193744B2, “Heterocyclic nuclear hormone receptor modulators” (AbbVie Inc., priority 2012, dated 2015):
Read-outs that look alike come from different tables or passages of the source.

What was measured:
IL-6 = assay: A549 Cell Assay to Measure Inflammation Markers (inhibition of IL-1β-induced IL-6); type: cell-based; conditions: A549 cells, read-out: A549 cell assay
Summary of the method: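 A549 cells pre-incubated 1 h with compound (10-point dilution, 0.1% DMSO final) in charcoal-stripped serum medium, then stimulated 4 h with 1 ng/mL IL-1β at 37° C. Supernatant IL-6 measured by MSD immunoassay; IC50 and Emax relative to 1 μM prednisolone as 100% inhibition; viability checked by CellTiter-Glo.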

[1] = target: T1, Glucocorticoid Receptor (GR) (Homo sapiens, UniProt P04150); assay: GR Fluorescence Polarization Assay (PolarScreen Glucocorticoid Receptor Competitor Assay, Red); conditions: fluorescence polarization binding ranges
T1 construct: purchased Invitrogen P2893
T1 sequence (P04150 1-777): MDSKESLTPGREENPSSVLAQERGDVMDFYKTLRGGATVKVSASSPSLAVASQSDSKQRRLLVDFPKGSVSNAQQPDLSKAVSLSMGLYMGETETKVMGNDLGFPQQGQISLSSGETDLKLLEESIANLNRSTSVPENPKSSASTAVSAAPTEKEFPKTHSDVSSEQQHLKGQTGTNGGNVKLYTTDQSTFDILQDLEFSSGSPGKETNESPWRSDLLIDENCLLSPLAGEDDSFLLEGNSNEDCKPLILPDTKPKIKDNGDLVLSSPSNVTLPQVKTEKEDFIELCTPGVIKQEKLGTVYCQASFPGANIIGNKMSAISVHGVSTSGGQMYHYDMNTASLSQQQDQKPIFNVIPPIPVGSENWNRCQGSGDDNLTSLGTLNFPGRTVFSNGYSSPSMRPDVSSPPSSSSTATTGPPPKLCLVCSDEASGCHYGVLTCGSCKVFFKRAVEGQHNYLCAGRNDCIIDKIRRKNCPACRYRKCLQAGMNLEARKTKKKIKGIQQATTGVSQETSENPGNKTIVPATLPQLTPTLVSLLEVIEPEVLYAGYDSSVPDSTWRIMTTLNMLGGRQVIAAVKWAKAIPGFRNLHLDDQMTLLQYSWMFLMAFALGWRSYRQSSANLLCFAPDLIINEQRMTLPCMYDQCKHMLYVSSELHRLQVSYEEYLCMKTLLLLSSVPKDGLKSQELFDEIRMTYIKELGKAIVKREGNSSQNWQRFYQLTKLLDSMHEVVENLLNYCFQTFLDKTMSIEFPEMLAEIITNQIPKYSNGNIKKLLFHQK
Summary of the method: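 Compound displacement of a red-labelled glucocorticoid from GR, read as fluorescence polarization. Tracer, receptor and 1:4-serially diluted compound were left together overnight at 4° C in the kit assay buffer.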

SMILES	IC50 (IL-6; Homo sapiens) [nM]	IC50 [1] [nM]	IC50 (IL-6) [nM]
CC[C@@]12CC[C@](O)(C(F)(F)F)C[C@H]1CCCc1cc3c(cnn3-c3ccc(S(C)(=O)=O)cc3)cc12 [Example 168, (3R,4aR,12bR)-12b-ethyl-9-(4-(methylsulfonyl)phenyl)-3-(trifluoromethyl)-1,2,3,4,4a,5,6,7,9,12b-decahydrobenzo[6,7]cyclohepta[1,2-f]indazol-3-ol]	< 100	< 100	
OC[C@@]12CC[C@](O)(C(F)(F)F)C[C@H]1CCCc1cc3c(cnn3-c3ccc(F)cc3)cc12 (racemic) [Example 80]	< 100	< 100	
N#CC[C@@]1(O)CC[C@@]2(Cc3ncccn3)c3cc4cnn(-c5ccc(F)cc5)c4cc3CCC[C@H]2C1 [Example 62]		< 100	< 100
CC[C@@]12CC[C@](O)(C(F)(F)F)C[C@H]1CCC(=O)c1cc3c(cnn3-c3ccc(F)cc3)cc12 [Example 105, (3R,4aR,12bR)-12b-Ethyl-9-(4-fluorophenyl)-3-hydroxy-3-(trifluoromethyl)-1,2,3,4,4a,5,6,12b-octahydrobenzo[6,7]cyclohepta[1,2-f]indazol-7(9H)-one]	< 100	< 100	
COC[C@]1(O)CC[C@]2(Cc3ncccn3)c3cc4cnn(-c5ccc(F)cc5)c4cc3CCC[C@@H]2C1 [Example 36]		< 100	> 10000
CC[C@@]12CC[C@](O)(C(F)(F)F)C[C@H]1CC[C@H](O)c1cc3c(cnn3-c3ccc(F)cc3)cc12 (single isomer, unassigned) [Example 104]	< 100	< 100	
CC[C@@]1(O)CC[C@@]2(CC)c3cc4cnn(-c5ccc(F)cc5)c4cc3CCC[C@@H]2C1 [Example 113, (3R,4aR,12bR)-3,12b-Diethyl-9-(4-fluorophenyl)-1,2,3,4,4a,5,6,7,9,12b-decahydrobenzo[6,7]cyclohepta[1,2-f]indazol-3-ol]	< 100	< 100	
COC[C@@]1(O)CC[C@@]2(Cc3ncccn3)c3cc4cnn(-c5ccc(F)cc5)c4cc3CCC[C@H]2C1 [Example 41]		< 100	< 100
CC[C@]12CC[C@](O)(C(F)(F)F)C[C@H]1CC=Cc1cc3c(cnn3-c3ccc(F)cc3)cc12 [Example 93, (3R,4aR,12bS)-12b-Ethyl-9-(4-fluorophenyl)-3-(trifluoromethyl)-1,2,3,4,4a,5,9,12b-octahydrobenzo[6,7]cyclohepta[1,2-f]indazol-3-ol]	> 10000	< 100	
COC[C@@]1(O)CC[C@@]2(Cc3ccccn3)c3cc4cnn(-c5ccncc5)c4cc3CCC[C@H]2C1 [Example 49]		< 100	< 100
O=C(NC1CC1)[C@]12CC[C@@](O)(C(F)(F)F)C[C@@H]1CCCc1cc3c(cnn3-c3ccc(F)cc3)cc12 (single isomer, unassigned) [Example 87]	1000 to 10000	< 100	
C[C@@]1(O)CC[C@@]2(Cc3ncccn3)c3cc4cnn(-c5ccc(F)cc5)c4cc3CCC[C@H]2C1 [Example 55]		< 100	< 100
O[C@@]1(C(F)(F)F)CC[C@@]2(Cc3ccccn3)c3cc4cnn(-c5ccc(F)cc5)c4nc3CCC[C@H]2C1 (racemic) [Example 155, rac-(3R,4aR,12bR)-9-(4-Fluorophenyl)-12b-(pyridin-2-ylmethyl)-3-(trifluoromethyl)-1,2,3,4,4a,5,6,7,9,12b-decahydrobenzo[3,4]cyclohepta[1,2-b]pyrazolo[4,3-e]pyridin-3-ol]	> 10000	100 to 1000	
N#CC[C@@]1(O)CC[C@@]2(Cc3ccccn3)c3cc4cnn(-c5ccc(F)cc5)c4nc3CCC[C@H]2C1 [Example 163]		< 100	< 100
CC[C@@]12CC[C@](O)(COC)C[C@@H]1CCOc1cc3c(cnn3-c3ccc(F)cc3)cc12 (racemic) [Example 129]		< 100	< 100
CC[C@]12CC[C@@](O)(COC)C[C@H]1CCCc1cc3c(cnn3-c3ccc(F)cc3)cc12 [Example 34]		< 100	> 10000
C[C@]1(O)CC[C@]2(Cc3ccccn3)c3cc4cnn(-c5ccc(F)cc5)c4cc3CCC[C@@H]2C1 (single isomer, unassigned) [Example 16]	< 100	< 100	
CC[C@@]12CC[C@](O)(C(F)(F)F)C[C@H]1CCCc1c2cc2cnn(-c3ccc(F)cc3)c2c1C [Example 103, (3R,4aR,12bR)-12b-Ethyl-9-(4-fluorophenyl)-8-methyl-3-(trifluoromethyl)-1,2,3,4,4a,5,6,7,9,12b-decahydrobenzo[6,7]cyclohepta[1,2-f]indazol-3-ol]	< 100	< 100	
